One assay concerns Hs-578T. The experiment in a line: NCI tumour cell line growth inhibition, 48 h.
In the next assay the test system is BT-549. The experiment in a line: NCI tumour cell line growth inhibition, 48 h.

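Where inhibition never reached the appropriate level, the endpoint shown equals the highest concentration tested. Otherwise, values were interpolated linearly from a five-concentration, 48-hour dose response in 96-well plates. Here, GI50 denotes the concentration required for 50% inhibition of growth.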 Active and inactive are the calls of the source. Cut-off read from the data, not from the text of the source: active = GI50 up to about 1.1 µM and inactive = higher.

This note sets out measurements from ChEMBL document CHEMBL1201862, “PubChem BioAssay data set” (2004).

Consider `NS(=O)(=O)c1ccc(/N=N/c2ncccc2O)cc1`, for which the GI50 with Hs-578T and in the assay with BT-549 was > 100 µM (inactive) in each case.
Turning to `C=CCNS(=O)(=O)c1ncnc2[nH]cnc12`, the GI50 with Hs-578T and with BT-549 was > 100 µM (inactive) each time.
`CN(C)Cc1nsc(N(C)C)n1`: the GI50 in the assay on Hs-578T and with BT-549 was > 100 µM (inactive) each time.
For `Cc1ccc(S[C@@H](C)[C@@](O)(CF)CN(Cc2ccccc2)C(=O)C(F)(F)F)cc1`, the GI50 in the assay with Hs-578T is 18.3 µM (inactive); in the assay on BT-549, 19.6 µM (inactive).
Regarding `CC1(C)CCC[C@@]2(C)C1C(=O)[C@@H]1O[C@]1(C)[C@@H]2CO` (some centres not stated), the results for the GI50 in the assay with Hs-578T and in the assay on BT-549 were 34.3 µM (inactive) and 16.9 µM (inactive), respectively.
For the compound `COC(=O)c1nsc(OC)c1Cl`, the GI50 in the assay on Hs-578T and in the assay on BT-549 was > 100 µM (inactive) each time.
For `CCC1OC2C(CC=C(C)C)=C3OC(C)(O)C(C)(CC)C(=O)C3=C3OC(=O)C=C1C32` (configuration not stated), the GI50 in the assay with BT-549 was 15.1 µM (inactive).
Regarding `C=C(C)C1CCC2=CC(CC3(C)OC3C3=CC(C(=O)OC)=C(C1)O3)OC2=O` (configuration not stated), the GI50 with BT-549 was > 100 µM (inactive).
`CCCCCCCC/C=C\CCCCCCC/C=C1\C[C@](/C=C/C(=O)OC)(CO)OC1=O`: the GI50 with Hs-578T was 1.25 µM (inactive); in the assay on BT-549 it was 2.33 µM (inactive).
As for `NC(=O)c1ccc(NCC2=CC(=O)C=CC2=O)cc1`, the GI50 was 30.3 µM (inactive) with Hs-578T and 15.5 µM (inactive) in the assay on BT-549.
With `Cc1ccc(S(=O)(=O)N2CCCSCCSCCCSCC2)cc1`, the GI50 in the assay on BT-549 is > 100 µM (inactive).
With `CCOC(=O)c1c(C)n(Cc2ccccc2)c(=O)c2ccccc2c(=O)c2c(=O)ccc(=O)c1=2`, the GI50 in the assay with Hs-578T is > 100 µM (inactive).
As to `Cc1nc(-[n+]2nc(-c3ccncc3)nn2-c2ccccc2)sc1C`, the GI50 in the assay on Hs-578T is 44.4 µM (inactive); in the assay with BT-549, 17.1 µM (inactive).
Consider `CCCc1c(OC)c(=O)c2c(OC)cc(OC)c3c4c(OC)cc(OC)c5c(=O)c(OC)c(CCC)c(c1c23)c54`, for which the GI50 in the assay on BT-549 was 15 µM (inactive).
Consider `COc1ccc2c(c1)SC1=Nc3sc4cc(OC)ccc4[n+]3CN12`, for which the GI50 in the assay on Hs-578T was 44.8 µM (inactive); in the assay on BT-549, 66.8 µM (inactive).
The corresponding values for `CCOC(=O)c1ccc(NC(NC(=O)CC)(C(F)(F)F)C(F)(F)F)cc1` are > 100 µM (inactive) and > 100 µM (inactive).
For the compound `CC(=O)CC(O)(C(F)(F)Cl)C(F)(Cl)Cl` (configuration not stated), the GI50 in the assay with Hs-578T is > 10 µM (inactive).
Still for that read-out and setting: to `CCC1(CC)SCc2nc3ccccc3n21` belongs 31.1 µM (inactive).
Take `CC(=O)N(CN1C(=O)CCC1C(=O)O)c1ccccc1` (configuration not stated): the results for the GI50 in the assay with Hs-578T and in the assay with BT-549 were > 53.3 µM (inactive) and > 100 µM (inactive), respectively.
On to `O=S(=O)(c1ccccc1)n1c2cc3cccnc3nc2c2cccnc21`, for which the GI50 in the assay on Hs-578T and in the assay on BT-549 was > 100 µM (inactive) each time.
As to `CCc1cccc(C(C)C)c1NC1=C([n+]2ccc(C)cc2)C(=O)c2ccccc2C1=O.[O-][Cl+3]([O-])([O-])[O-]`, the GI50 in the assay on Hs-578T was 12.8 µM (inactive).
On to `Oc1ccc(-c2nn3c(CCCCCCCCc4nnc5sc(-c6ccc(O)cc6)nn45)nnc3s2)cc1`, for which the GI50 in the assay on Hs-578T and in the assay on BT-549 was > 100 µM (inactive) in each case.
Turning to `C=CC(C)(C)n1cc(C2=C(O)C(=O)C(c3c(CC=C(C)C)[nH]c4ccccc34)=C(O)C2=O)c2ccccc21`, the GI50 with Hs-578T is 1.43 µM (inactive); in the assay with BT-549 it was 0.571 µM (active).
As to `CCOC(=O)c1c(O)cc(=O)[nH]c1N1CCOCC1`, the GI50 in the assay on BT-549 was > 100 µM (inactive).
Regarding `COc1cccc(C(NC2=NCCC=N2)c2cc3c(cc2O)OCO3)c1O` (configuration not stated), the GI50 with Hs-578T was 25.4 µM (inactive); in the assay with BT-549 it was 16.7 µM (inactive).
Take `C=C(C)C(O)C(O)c1c(OC)ccc2ccc(=O)oc12` (configuration not stated): the GI50 with Hs-578T and with BT-549 was > 100 µM (inactive) each time.
As to `CC(CN(C)C)C(O)(c1ccccc1)c1ccccc1` (configuration not stated), the GI50 with Hs-578T and in the assay on BT-549 was > 100 µM (inactive) in each case.
For `CC1(C)C2CCC1(C)C(N/C(Sc1ccccc1)=C(/C(Cl)=C(Cl)Cl)[N+](=O)[O-])C2` (configuration not stated), the GI50 in the assay on BT-549 is 12.4 µM (inactive).
On to `C#CCN(Cc1ccc2[nH]c(N)nc(=O)c2c1)c1ccc(C(=O)NC(CCC(=O)O)C(=O)O)cc1` (configuration not stated), for which, in the assay on BT-549, the GI50 is 8.11 µM (inactive).
